In patent publication EP0054589B1, “Organic phosphoric acid ester derivatives, a process for preparing the same and insecticidal, miticidal or nematocidal compositions containing the same” (priority 1980, dated 1982):
Where two headings read alike, the source gives them in different places.

Assays:
[1] = system: carmine mites resistant to Kelthane; assay: Miticidal effect on carmine mite resistant to Kelthane (sprayed egg plant seedling); assay type: in vivo, Tetranychus cinnabarius; details: Table 13, 500 ppm
Method: (§1) (A) An emulsifiable concentrate prepared as described in Formulation Example 1 and diluted to a predetermined concentration was sprayed using a spray-gun on a seedling of an egg plant placed in a pot of 12 cm in diametre to which plant carmine mites resistant to Kelthane were parasitic. After drying in air, seedlings were kept in a green house, and the number of living insects was recorded on the 7th, 14th, 21 st and 28th day from the day of application to determine the control effects. Three pots were used for each treatment. The control effect was assessed by the formula described in TEST EXAMPLE 7 above. Further, phytotoxicity was observed visually on the 7th day after the application.
as §1, with “(B) An” for “(A) An”, “Example 3” for “Example 1”, “in diameter” for “in diametre”, “in Test” for “in TEST”

diamond back moth = assay: Insecticidal effect on diamond-back moth (cabbage leaf dip); assay type: in vivo, Plutella xylostella; details: after 72 hours, 25°C
Method: (§2) (A) An emulsifiable concentrate prepared as described in Formulation Example 1 was diluted with water to a predetermined concentration and leaves of a cabbage were dipped into the dilute emulsion for 10 seconds followed by drying in air, and charged in a 60 ml volume cup made of vinyl chloride resin. Then, thirty 3rd-instar larvae of diamond back moth were put in each cup, and the cups were kept at 25°C. After 72 hours, percent mortality was assessed and the test was replicated 3 times for each treatment.
as §2, with “(B) An” for “(A) An”, “Example 4” for “Example 1”

carmine mites = assay: Miticidal effect on carmine mite (sprayed kidney bean seedling); assay type: in vivo, Tetranychus cinnabarius; details: 500 ppm
Method: An emulsifiable concentrate prepared as described in Formulation Example 1 and diluted to a predetermined concentration was sprayed using a spray-gun on a seedling of a kidney bean placed in a pot of 12 cm in diameter to which plant carmine mites were parasitic. After drying in air, seedlings were kept in a green house, and the number of living insects was recorded on the 7th, 14th, 21st and 28th day from the day of application to determine the control effects. Three pots were used for each treatment. The control effect was assessed by the following formula: [formula] • wherein Σ indicates sum and Cb, Tb, Cai and Tai have the following meanings. • Cb: Number of living mites in non-treated sample before application. • Tb: Number of living mites in treated sample before application. • Cai: Number of living mites in non-treated sample 7th, 14th, 21 st or 28th day from the application. • Tai: Number of living mites in treated sample 7th, 14th, 21st or 28th day from the application.

Beet = assay: Phytotoxicity on various crops; assay type: in vivo; parameters: key: Symbol — indicates that no toxicity was observed; details: 500 ppm sprayed; checked visually after 10 days
Method: (§3) An emulsifiable concentrate prepared as described in Formulation Example 2 was diluted with water to a concentration of 500 ppm based on the effective ingredient and sprayed sufficiently using a spray-gun onto various test plants. The plants were kept in a green house. After 10 days from the application phytotoxicity was checked visually. The test was replicated 3 times for each compound.

Rice = assay: Phytotoxicity on various crops; assay type: in vivo; parameters: key: Symbol — indicates that no toxicity was observed; details: 500 ppm sprayed; checked visually after 10 days
Method: as §3

Cotton = assay: Phytotoxicity on various crops; assay type: in vivo; parameters: key: Symbol — indicates that no toxicity was observed; details: 500 ppm sprayed; checked visually after 10 days
Method: as §3

Tomato = assay: Phytotoxicity on various crops; assay type: in vivo; parameters: key: Symbol — indicates that no toxicity was observed; details: 500 ppm sprayed; checked visually after 10 days
Method: as §3

Apple = assay: Phytotoxicity on various crops; assay type: in vivo; parameters: key: Symbol — indicates that no toxicity was observed; details: 500 ppm sprayed; checked visually after 10 days
Method: as §3

egg plant = assay: Phytotoxicity on various crops; assay type: in vivo; parameters: key: Symbol — indicates that no toxicity was observed; details: 500 ppm sprayed; checked visually after 10 days
Method: as §3

Kidney Bean = assay: Phytotoxicity on various crops; assay type: in vivo; parameters: key: Symbol — indicates that no toxicity was observed; details: 500 ppm sprayed; checked visually after 10 days
Method: as §3

Cucumber = assay: Phytotoxicity on various crops; assay type: in vivo; parameters: key: Symbol — indicates that no toxicity was observed; details: 500 ppm sprayed; checked visually after 10 days
Method: as §3

Tea = assay: Phytotoxicity on various crops; assay type: in vivo; parameters: key: Symbol — indicates that no toxicity was observed; details: 500 ppm sprayed; checked visually after 10 days
Method: as §3

Cabbage = assay: Phytotoxicity on various crops; assay type: in vivo; parameters: key: Symbol — indicates that no toxicity was observed; details: 500 ppm sprayed; checked visually after 10 days
Method: as §3

Green Pepper = assay: Phytotoxicity on various crops; assay type: in vivo; parameters: key: Symbol — indicates that no toxicity was observed; details: 500 ppm sprayed; checked visually after 10 days
Method: as §3

tobacco cutworm [2] = assay: Insecticidal effect on tobacco cutworm (cabbage leaf dip); assay type: in vivo, Prodenia litura; details: after 48 hours, 25°C
Method: (§4) (A) An emulsifiable concentrate prepared as described in Formulation Example 1 was diluted with water to a predetermined concentration and then cabbage leaves were dipped into the dilute solution and dried in air and placed in a 60 ml volume cup made of vinyl chloride resin. 3rd-instar larvae of tobacco cutworm were put in each cup and maintained at 25°C. After 48 hours, percent mortality was assessed. The test was replicated 3 times for each compound using 30 insects in each test.
as §4, with “(B)” for “(A)”, “3” for “1”

rice stem borer = assay: Insecticidal effect on rice stem borer, 3rd-instar larvae (rice seedling dip); assay type: in vivo, Chilo suppressalis; details: after 72 hours, 25°C
Method: (§5) (A) A wettable powder prepared as described in Formulation Example 5 was diluted with water to a predetermined concentration. Rice seedlings were dipped into the dilute solution and placed in a 60 ml volume cup made of vinyl chloride resin, and 10 3rd-instar larvae of rice stem borer were put in each cup. The cups were capped and maintained at 25°C.
as §5, with “(B) A” for “(A) A”, “Example 7” for “Example 5”

tobacco cutworm [3] = assay: Long-lasting insecticidal effect on tobacco cutworm (sprayed cabbage plantlet); assay type: in vivo, Prodenia litura; details: concentration 500 (unit not given), mortality after 48 hours; for Percent Mortality After Application 3rd Day: leaves cut on 3rd day
Method: (§6) (A) An emulsifiable concentrate prepared as described in Formulation Example 2 was diluted with water to a predetermined concentration and sprayed onto a cabbage plantlet in a flower pot of 15 cm in diameter using a spray-gun sufficiently and the tests plants were placed in a green house. The leaves of the plants were cut off on the 3rd, 5th, 7th, 10th and 15th day and placed in a 60 ml volume cup and 3rd-instar larvae of tobacco cutworm were put in each cup. The cups were kept in an incubator (25°C). After 48 hours, percent mortality was assessed. The tests was replicated 3 times for each compound using 30 insects in each test.
as §6, with “(B) An” for “(A) An”, “Example 3” for “Example 2”, “and 1 5th” for “and 15th”

apple leaf miner = assay: Insecticidal effect on apple leaf miner (sprayed apple seedling); assay type: in vivo, Lithocolletis ringoniella; details: for mortality at 500 ppm: Phyllonorycter ringoniella, 336 h
Method: (§7) (A) A dilute water suspension of a wettable powder prepared as described in Formulation Example 5 was sufficiently sprayed using a spray-gun on a seedling of an apple tree planted in a bisque flower pot to which plant larvae of apple leaf miner just after hatching were parasitic. Thereafter the pots were placed in a green house. Fourteen days after the spraying, bores made by larvae were broken and percent mortality was assessed for all the leaves of each seedling. Three pots were used for each treatment.
as §7, with “(B)” for “(A)”, “7” for “5”

[4] = egg plant seedling, Formulation Example 1
[5] = Table 7, 100 ppm, emulsifiable concentrate as Formulation Example 1
[6] = Table 8, 100 ppm, emulsifiable concentrate as Formulation Example 4
[7] = Table 4, 100 ppm, emulsifiable concentrate as Formulation Example 3

Compound: CCCCSP(=O)(OCC)Oc1ccc2c(c1)OC(C)=CC2(C)C (stereo not drawn) [Compound No. 5]
- Number of Living Mites after Application 7th Day [1, 4]: 0
- Number of Living Mites after Application 14th Day [1, 4]: 0
- Number of Living Mites after Application 21st Day [1, 4]: 9
- Number of Living Mites after Application 28th Day [1, 4]: 29
- Control Effect (%) ([1]; from mite counts on 7th, 14th, 21st and 28th day): 97.4%
- Percent Mortality (%) (diamond back moth; [5]): 100%
- Control Effect (%) (carmine mites): 91.2%
- Number of Living Mites after Application 7th Day (carmine mites): 0
- Number of Living Mites after Application 14th Day (carmine mites): 0
- Number of Living Mites after Application 21st Day (carmine mites): 16
- Number of Living Mites after Application 28th Day (carmine mites): 38
- Phytotoxicity: Beet (Beet): —
- Phytotoxicity: Rice (Rice): —
- Phytotoxicity: Cotton (Cotton): —
- Phytotoxicity: Tomato (Tomato): —
- Phytotoxicity: Apple (Apple): —
- Phytotoxicity: Egg Plant (egg plant): —
- Phytotoxicity: Kidney Bean (Kidney Bean): —
- Phytotoxicity: Cucumber (Cucumber): —
- Phytotoxicity: Tea (Tea): —
- Phytotoxicity: Cabbage (Cabbage): —
- Phytotoxicity: Green Pepper (Green Pepper): —
- Percent Mortality (%) (tobacco cutworm [2]; Table 3, 500 ppm, emulsifiable concentrate as Formulation Example 1): 100%
- Percent Mortality (%) (rice stem borer; Table 1, 500 ppm, wettable powder as Formulation Example 5): 100%

Compound: COP1(=S)OCc2ccccc2O1 (stereo not drawn) [Salithion, 2-methoxy-4H-benzo-1,3,2-dioxaphosphorin 2-sulphide, reference compound]
- Percent Mortality After Application 3rd Day (tobacco cutworm [3]; Table 5): 20%
- Percent Mortality After Application 5th Day (tobacco cutworm [3]; Table 5, leaves cut on 5th day): 0%
- Percent Mortality After Application 7th Day (tobacco cutworm [3]; Table 5, leaves cut on 7th day): 0%
- Percent Mortality After Application 10th Day (tobacco cutworm [3]; Table 5, leaves cut on 10th day): 0%
- Percent Mortality After Application 15th Day (tobacco cutworm [3]; Table 5, leaves cut on 15th day): 0%
- Percent Mortality After Application 3rd Day (tobacco cutworm [3]; Table 6): 0%
- Percent Mortality After Application Immediately after Application (tobacco cutworm [3]; Table 6): 100%
- mortality at 500 ppm (apple leaf miner; Table 10, 500 ppm, fourteen days after spraying, wettable powder as Formulation Example 5, read-out: Percent Morality (%)): 95%

Compound: COc1nn(CSP(=S)(OC)OC)c(=O)s1 [Supracide, O,O-dimethyl-S-[5-methoxy-1,3,4-thiadiazol-2(3H)-onyl(3)-methyl]dithiophosphate, reference compound]
- mortality at 500 ppm (apple leaf miner; Table 11, 500 ppm, fourteen days after spraying, wettable powder as Formulation Example 7, read-out: Percent Mortality (%)): 72%

Compound: CCOC(=O)C(SP(=S)(OC)OC)c1ccccc1 (stereo not drawn) [Elsan, S-(α-ethoxy-carbonyl benzyl O,O-dimethyl phosphorodithioate, reference compound]
- Percent Morality (%) (apple leaf miner; Table 10, 500 ppm, fourteen days after spraying, wettable powder as Formulation Example 5, 20160 min): 13.2%

Compound: COP(=O)(OC)OC=C(Cl)Cl [DDVP, dimethyl 2,2-dichlorovinyl dimethyl phosphate, reference compound]
- Percent Mortality (%) (diamond back moth; [5]): 23.3%
- Percent Mortality (%) (diamond back moth; Table 7, 500 ppm): 76.7%
- Percent Mortality (%) (diamond back moth; [6]): 6.7%
- Percent Mortality (%) (diamond back moth; Table 8, 500 ppm): 83.3%
- Percent Mortality (%) (tobacco cutworm [2]; [7]): 46.7%

Compound: CCCSP(=S)(OCC)Oc1cccc2c1C(C)=CC(C)(C)O2 (stereo not drawn) [Compound No. 26]
- Percent Mortality (%) (diamond back moth; [6]): 96.7%
- Phytotoxicity: Beet (Beet): —
- Phytotoxicity: Rice (Rice): —
- Phytotoxicity: Cotton (Cotton): —
- Phytotoxicity: Tomato (Tomato): —
- Phytotoxicity: Apple (Apple): —
- Phytotoxicity: Egg Plant (egg plant): —
- Phytotoxicity: Kidney Bean (Kidney Bean): —
- Phytotoxicity: Cucumber (Cucumber): —
- Phytotoxicity: Tea (Tea): —
- Phytotoxicity: Cabbage (Cabbage): —
- Phytotoxicity: Green Pepper (Green Pepper): —
- Percent Mortality (%) (tobacco cutworm [2]; [7]): 100%
- Percent Mortality (%) (rice stem borer; Table 2, 100 ppm, wettable powder as Formulation Example 7): 100%

Compound: CCOP(=S)(OCC)Oc1nc(Cl)c(Cl)cc1Cl [Dursban, 0,0-diethyl 0-(3,5,6-trichloro-2-pyridyl)phosphorothioate, reference compound]
- mortality at 500 ppm (apple leaf miner; read-out: Percent Morality (%)): 29.4%
